According to patent US10071133B2, “Method for destroying exosomes, kit for destroying exosomes, and method for isolating exosomes derived from normal cells” (priority 2015, dated 2018):

Key:
Assay type in all cases: biochemical
[1] = test system: exosome fraction B derived from human breast cancer cells versus exosome fraction derived from normal human serum; assay: Selectivity: miR-16 ratio, breast cancer exosomes versus normal human serum exosomes (Formula 2); conditions: Formula 2, cancer/normal human serum exosomes; magainin 2 100 μM, 37° C., 24 hours
Protocol: A cell suspension of cell line MDA-MB-231-luc-D3H2LN derived from human breast cancer (=MM231-luc-D3H2LN, provided by the National Cancer Center Research Institute) was seeded in a dish containing RPMI 1640 medium (manufactured by Thermo Fisher Scientific Inc.) containing 10% fetal bovine serum. Subsequently, the cell line was grown at 37° C. under the condition that CO2 concentration was set to 5 volume % using a CO2 incubator, and then the medium was replaced with Advanced RPMI 1640 medium (manufactured by Thermo Fisher Scientific Inc.), followed by culturing for 48 hours, and therefore the culture solution containing exosomes was obtained. This culture solution was centrifuged at 2,000 G for 10 minutes to remove the precipitate, followed by centrifugation at 110,000 G for 70 minutes to precipitate the exosomes, and therefore an exosome fraction B was recovered. The recovered exosome fraction B was suspended in a phosphate buffered saline (PBS) and then stored at 4° C. Storage samples were lightly suspended with a vortex mixer (vibration mixer) before use.
Storage samples were lightly suspended with a vortex mixer (vibration mixer) before use. […]

[2] = test system: exosome fraction A prepared from the cell line MM231-luc-D3H2LN derived from human breast cancer cells; assay: Destruction of exosomes in PBS, number of exosomes by nanoparticle analyzer (NanoSight LM10); conditions: 100 μM peptide, 1.36×10^10 particles/mL exosomes in PBS, 25° C., 24 hours; without peptide 1.36×10^10
From the text: Storage samples were lightly suspended with a vortex mixer (vibration mixer) before use.

[3] = test system: exosome derived from human prostate cancer cells (PC3ML); assay: Extraction of microRNA (miR-21) from exosome derived from prostate cancer cells, real-time PCR; conditions: 100 μM peptide, 1×10^11 particles/mL PC3ML exosomes, 0.4 U/μL RNase inhibitor, 37° C., 24 hours; without peptide 3×10^−14M
Protocol: A cell suspension of cell line PC3ML derived from human prostate cancer cells (provided by the National Cancer Center Research Institute) was seeded in a dish containing RPMI 1640 medium (manufactured by Thermo Fisher Scientific Inc.) containing 10% fetal bovine serum. Subsequently, the cell line was grown at 37° C. under the condition that CO2 concentration was set to 5 volume % using a CO2 incubator, and then the medium was replaced with Advanced RPMI 1640 medium (manufactured by Thermo Fisher Scientific Inc.), followed by culturing for 48 hours, and the culture solution containing exosomes was obtained. This culture solution was centrifuged at 2,000 G for 10 minutes to remove the precipitate, followed by centrifugation at 110,000 G for 70 minutes to precipitate the exosomes, and therefore an exosome fraction was recovered. The recovered exosome fraction was suspended in a phosphate buffered saline (PBS) and then stored at 4° C. Storage samples were lightly suspended with a vortex mixer (vibration mixer) before use. […]
The reverse transcription PCR solution obtained by the above described method was processed and by comparing the number of cycles on a calibration curve of microRNA using Taqman Assay primer (manufactured by Thermo Fisher Scientific Inc., Taqman microRNA Assays, Taqman Assay primer, and hsa-mir-21 or hsa-mir-16) and Real-Time PCR Master Mixes (manufactured by Thermo Fisher Scientific Inc., TaqMan Universal PCR Master Mix II, w/UNG) with StepOnePlus Real-Time PCR System, MiR-21 or miR-16 was quantified. […]
The amount of microRNA (miR-21) contained in the recovered eluate was quantified by the above described real-time PCR method. […] In addition, the destructive activity of the antimicrobial peptide used was evaluated on the basis of the following criteria based on the quantitative result of the concentration of microRNA (miR-21) performed by the real-time PCR method. […]

Substance: Magainin 2
- mir-16 ratio [1]: 56.6
- number of exosomes in the solution [2]: 1.89×10^9 particles/mL
- Destructive activity (concentration of microRNA miR-21 in eluate) [3]: B (the concentration of microRNA is 5×10^−14M to 10×10^−14M)
